The values below come from patent US7754741B2, “Pyridine derivatives as fungicidal compounds” (Bayer Cropscience S.A., priority 2003, dated 2010).

Bounds are passed on as bounds.

One assay concerns Alternaria brassicae. Description: In vivo test on Alternaria brassicae (leaf spot of crucifers). The conditions noted are these: Alternaria brassicae; dose 330 ppm; radish plants sprayed 24 hours before contamination; grading 6 to 7 days after contamination vs control plants; read-out: protection (good (at least 50%) to total). As to the method: In Vivo Test on Alternaria brassicae (Leaf Spot of crucifers)
(§1) The active ingredient tested is prepared by potter homogenisation in a concentrated suspension type formulation at 100 g/l. This suspension is then diluted with water to obtain the desired active material concentration.
Radish plants (Pernot variety) in starter cups, sown on a 50/50 peat soil-pozzolana substrate and grown at 18-20° C., are treated at the cotyledon stage by spraying with the aqueous suspension described above.
Plants, used as controls, are treated with an aqueous solution not containing the active material.
After 24 hours, the plants are contaminated by spraying them with an aqueous suspension of Alternaria brassicae spores (40,000 spores per cm^3). The spores are collected from a 12-13-day-old culture.
The contaminated radish plants are incubated for 6-7 days at about 18° C., under a humid atmosphere.
Grading is carried out 6 to 7 days after the contamination, in comparison with the control plants.

The subject of a further assay is Pyrenophora teres. Kind of assay: In vivo test on Pyrenophora teres (barley net blotch). Conditions: Pyrenophora teres, 288 h; dose 330 ppm; barley plants sprayed 24 hours before contamination; grading 12 days after contamination vs control plants; read-out: protection (good (at least 50%) to total). As to the method:
In Vivo Test on Pyrenophora teres (Barley Net Blotch)
as §1
Barley plants (Express variety) in starter cups, sown on a 50/50 peat soil-pozzolana substrate and grown at 12° C., are treated at the 1-leaf stage (10 cm tall) by spraying with the aqueous suspension described above. Plants, used as controls, are treated with an aqueous solution not containing the active material.
After 24 hours, the plants are contaminated by spraying them with an aqueous suspension of Pyrenophora teres spores (12,000 spores per ml). The spores are collected from a 12-day-old culture The contaminated barley plants are incubated for 24 hours at about 20° C. and at 100% relative humidity, and then for 12 days at 80% relative humidity.

Consider `Cc1ccoc1C(=O)NCCc1ncc(C(F)(F)F)cc1Cl` [Compound A-3], for which, in the assay on Alternaria brassicae, the pest or weed control at 330 ppm was at least 50%.
Consider `O=C(NCCc1ncc(C(F)(F)F)cc1Cl)c1cc(-c2ccc(Cl)cc2)oc1C(F)(F)F` [Compound B-2], for which, in the assay with Alternaria brassicae, the pest or weed control at 330 ppm is at least 50%.
With `O=C(NCCc1ncc(C(F)(F)F)cc1Cl)c1ccoc1` [Compound B-3], in the assay on Pyrenophora teres, the pest or weed control at 330 ppm was at least 50%.
As for `Cc1oc(-c2ccccc2)cc1C(=O)NCCc1ncc(C(F)(F)F)cc1Cl` [Compound B-5], the pest or weed control at 330 ppm in the assay with Alternaria brassicae was at least 50%.
For the molecule `O=C(NCCc1ncc(C(F)(F)F)cc1Cl)c1cc(-c2cccc(Cl)c2)oc1C(F)(F)F` [Compound B-9], in the assay on Alternaria brassicae, the pest or weed control at 330 ppm is at least 50%.
Turning to `O=C(NCCc1ncc(C(F)(F)F)cc1Cl)c1cc(-c2ccccc2)oc1C(F)(F)F` [Compound B-10], in the assay with Alternaria brassicae, the pest or weed control at 330 ppm was at least 50%.
With `O=C(c1ccoc1I)N(CCc1ncc(C(F)(F)F)cc1Cl)C1CC1` [Compound B-15], the pest or weed control at 330 ppm in the assay with Pyrenophora teres was at least 50%.
As for `Cc1cc(C(=O)NCCc2nc(C)c(Cl)cc2Cl)c(C)o1` [Compound B-16], the pest or weed control at 330 ppm in the assay on Pyrenophora teres and in the assay on Alternaria brassicae was at least 50% each time.
As to `O=C(NCCc1ncc(C(F)(F)F)cc1Cl)c1sccc1Br` [Compound C-5], the pest or weed control at 330 ppm with Pyrenophora teres and in the assay with Alternaria brassicae was at least 50% throughout.
Take `O=C(NCCc1ncc(C(F)(F)F)cc1Cl)c1ccc(-c2ccccn2)s1` [Compound C-6]: the pest or weed control at 330 ppm with Alternaria brassicae is at least 50%.
As for `CS(=O)(=O)c1csc(C(=O)NCCc2ncc(C(F)(F)F)cc2Cl)c1Cl` [Compound C-8], the pest or weed control at 330 ppm in the assay with Alternaria brassicae was at least 50%.
Turning to `O=C(NCCc1ccc(Cl)cn1)c1sccc1I` [Compound C-17], the pest or weed control at 330 ppm in the assay on Pyrenophora teres is at least 50%.
Regarding `O=C(NCCc1nc(Cl)ccc1Cl)c1sccc1I` [Compound C-18], the pest or weed control at 330 ppm in the assay on Alternaria brassicae is at least 50%.
Turning to `O=C(c1sccc1I)N(CCc1ncc(C(F)(F)F)cc1Cl)C1CC1` [Compound C-20], the pest or weed control at 330 ppm in the assay with Pyrenophora teres is at least 50%.
Regarding `Cc1nc(CCNC(=O)c2sccc2I)c(Cl)cc1Cl` [Compound C-21], in the assay on Alternaria brassicae, the pest or weed control at 330 ppm is at least 50%.
Turning to `O=C(NCCc1nc(F)c(Cl)cc1Cl)c1sccc1I` [Compound C-22], the pest or weed control at 330 ppm in the assay on Pyrenophora teres was at least 50%.
Regarding `O=C(NCCc1nc(F)c(Cl)cc1F)c1sccc1I` [Compound C-23], the pest or weed control at 330 ppm in the assay on Pyrenophora teres and in the assay with Alternaria brassicae was at least 50% in each case.
As for `Cn1ccc(I)c1C(=O)NCCc1ncc(C(F)(F)F)cc1Cl` [Compound F-3], the pest or weed control at 330 ppm in the assay with Pyrenophora teres and in the assay with Alternaria brassicae was at least 50% in each case.
In the case of `O=C(NCCc1ncc(C(F)(F)F)cc1Cl)c1ncoc1-c1ccccc1` [Compound G-1], the pest or weed control at 330 ppm in the assay with Pyrenophora teres and in the assay with Alternaria brassicae was at least 50% throughout.
As to `Cc1cc(C(=O)NCCc2ncc(C(F)(F)F)cc2Cl)nn1C(C)(C)C` [Compound I-1], the pest or weed control at 330 ppm in the assay on Pyrenophora teres and in the assay on Alternaria brassicae was at least 50% each time.
As for `O=C(NCCc1ncc(C(F)(F)F)cc1Cl)c1cnn(-c2ccccc2)c1C(F)(F)F` [Compound J-4], the pest or weed control at 330 ppm in the assay with Alternaria brassicae is at least 50%.
As to `O=C(NCCc1ncc(C(F)(F)F)cc1Cl)c1cnn(-c2ccc(Cl)cc2)c1C(F)(F)F` [Compound J-5], the pest or weed control at 330 ppm in the assay with Alternaria brassicae is at least 50%.
With `Cn1ncc(C(=O)NCCc2ncc(C(F)(F)F)cc2Cl)c1Cl` [Compound J-6], the pest or weed control at 330 ppm with Alternaria brassicae was at least 50%.
With `Cc1c(C(=O)NCCc2ncc(C(F)(F)F)cc2Cl)cnn1-c1ccc(F)cc1` [Compound J-7], the pest or weed control at 330 ppm in the assay on Pyrenophora teres is at least 50%.
With `COc1ccc(-n2ncc(C(=O)NCCc3ncc(C(F)(F)F)cc3Cl)c2C)cc1` [Compound J-8], the pest or weed control at 330 ppm with Pyrenophora teres was at least 50%.
Consider `Cc1ccccc1-n1ncc(C(=O)NCCc2ncc(C(F)(F)F)cc2Cl)c1C` [Compound J-10], for which, in the assay on Pyrenophora teres, the pest or weed control at 330 ppm is at least 50%.
Consider `CCCc1c(C(=O)NCCc2ncc(C(F)(F)F)cc2Cl)cnn1-c1ccc(Cl)cc1` [Compound J-12], for which the pest or weed control at 330 ppm in the assay on Alternaria brassicae is at least 50%.
Consider `O=C(NCCc1ncc(C(F)(F)F)cc1Cl)c1cnn(-c2ccc([N+](=O)[O-])cc2)c1C(F)(F)F` [Compound J-13], for which, in the assay with Alternaria brassicae, the pest or weed control at 330 ppm was at least 50%.
Regarding `Cn1cc(C(=O)N(CCc2ncc(C(F)(F)F)cc2Cl)C2CC2)c(C(F)(F)F)n1` [Compound J-23], the pest or weed control at 330 ppm in the assay on Pyrenophora teres was at least 50%.
Consider `Cn1cc(C(=O)NCCc2ccc(C(F)(F)F)c(Cl)n2)c(C(F)(F)F)n1` [Compound J-24], for which the pest or weed control at 330 ppm in the assay with Pyrenophora teres and in the assay on Alternaria brassicae was at least 50% throughout.
With `Cc1nc(CCNC(=O)c2cn(C)nc2C(F)(F)F)c(Cl)cc1Cl` [Compound J-25], the pest or weed control at 330 ppm in the assay on Pyrenophora teres and in the assay on Alternaria brassicae was at least 50% throughout.
Regarding `Cn1cc(C(=O)NCCc2nc(F)c(Cl)cc2Cl)c(C(F)(F)F)n1` [Compound J-26], the pest or weed control at 330 ppm in the assay with Pyrenophora teres and in the assay with Alternaria brassicae was at least 50% in each case.
Turning to `Cn1cc(C(=O)NCCc2ccc(Cl)cn2)c(C(F)F)n1` [Compound J-36], the pest or weed control at 330 ppm with Pyrenophora teres and with Alternaria brassicae was at least 50% each time.
`CC(C)ON=CCc1cnc(CCNC(=O)c2cn(C)nc2C(F)F)c(Cl)c1` [Compound J-38]: the pest or weed control at 330 ppm in the assay on Alternaria brassicae was at least 50%.
`Cc1nn(C)c(F)c1C(=O)NCCc1ncc(Cl)cc1F` [Compound J-49]: the pest or weed control at 330 ppm with Pyrenophora teres and in the assay on Alternaria brassicae was at least 50% in each case.
Consider `Cc1nn(C)c(F)c1C(=O)NCCc1nc(Cl)c(Cl)cc1Cl` [Compound J-50], for which the pest or weed control at 330 ppm in the assay on Pyrenophora teres and in the assay on Alternaria brassicae was at least 50% in each case.
In the case of `Cc1nn(C)c(F)c1C(=O)N(CCc1ncc(C(F)(F)F)cc1Cl)C1CC1` [Compound J-52], the pest or weed control at 330 ppm in the assay with Pyrenophora teres and with Alternaria brassicae was at least 50% in each case.
As for `Cn1cc(C(=O)NCCc2ncc(C(F)(F)F)cc2Cl)c(C(F)(F)F)n1` [Compound J-54], in the assay on Pyrenophora teres, the pest or weed control at 330 ppm is at least 50%.
On to `CC(C)(C)c1cc(C(=O)NCCc2ncc(C(F)(F)F)cc2Cl)n(Cc2ccccc2)n1` [Compound K-3], for which the pest or weed control at 330 ppm with Alternaria brassicae is at least 50%.
Consider `O=C(NCCc1ncc(C(F)(F)F)cc1Cl)c1ccnn1-c1ccccc1` [Compound K-5], for which the pest or weed control at 330 ppm with Alternaria brassicae was at least 50%.
Consider `CCn1nc(C)c(Br)c1C(=O)NCCc1ncc(C(F)(F)F)cc1Cl` [Compound K-6], for which the pest or weed control at 330 ppm in the assay with Pyrenophora teres and with Alternaria brassicae was at least 50% throughout.
Turning to `Cc1noc(C)c1C(=O)NCCc1ncc(C(F)(F)F)cc1Cl` [Compound M-2], the pest or weed control at 330 ppm in the assay on Alternaria brassicae is at least 50%.
Turning to `Cc1onc(-c2ccccc2Cl)c1C(=O)NCCc1ncc(C(F)(F)F)cc1Cl` [Compound M-4], the pest or weed control at 330 ppm in the assay on Pyrenophora teres and in the assay with Alternaria brassicae was at least 50% throughout.
With `O=C(NCCc1ncc(C(F)(F)F)cc1Cl)c1ccno1` [Compound N-1], the pest or weed control at 330 ppm in the assay on Alternaria brassicae was at least 50%.
Still for that read-out and setting: the value for `Cc1nn(-c2ccccc2)nc1C(=O)NCCc1ncc(C(F)(F)F)cc1Cl` [Compound O-1] was at least 50%.
For the molecule `Cc1nnsc1C(=O)NCCc1ncc(C(F)(F)F)cc1Cl` [Compound P-1], the pest or weed control at 330 ppm with Pyrenophora teres is at least 50%.
Take `O=C(NCCc1ncc(C(F)(F)F)cc1Cl)c1ncc(C(F)(F)F)cc1Cl` [Compound Q-1]: in the assay with Alternaria brassicae, the pest or weed control at 330 ppm is at least 50%.
Consider `O=C(NCCc1ncc(C(F)(F)F)cc1Cl)c1nc(Cl)ccc1Cl` [Compound Q-2], for which, in the assay with Alternaria brassicae, the pest or weed control at 330 ppm was at least 50%.
Still for that read-out and setting: as for `O=C(NCCc1ncc(C(F)(F)F)cc1Cl)c1cccnc1` [Compound R-5], the figure is at least 50%; as for `O=C(NCCc1ncc(C(F)(F)F)cc1Cl)c1cccnc1Sc1ccccc1` [Compound R-6], at least 50%.
As to `O=C(NCCc1ncc(C(F)(F)F)cc1Cl)c1cccnc1Oc1ccc(Cl)cc1` [Compound R-7], in the assay with Alternaria brassicae, the pest or weed control at 330 ppm was at least 50%.
Regarding `Cc1nc(C(F)(F)F)ccc1C(=O)NCCc1ncc(C(F)(F)F)cc1Cl` [Compound R-15], the pest or weed control at 330 ppm in the assay with Pyrenophora teres and with Alternaria brassicae was at least 50% in each case.
Consider `Cc1cc(C(=O)NCCc2ncc(C(F)(F)F)cc2Cl)cc(Cl)n1` [Compound S-2], for which the pest or weed control at 330 ppm in the assay on Pyrenophora teres and in the assay on Alternaria brassicae was at least 50% throughout.
Turning to `O=C(NCCc1ncc(C(F)(F)F)cc1Cl)c1ccnc(Cl)c1` [Compound S-5], the pest or weed control at 330 ppm with Alternaria brassicae was at least 50%.
